Results reported in patent US10940139B2, “Compounds that interact with the Ras superfamily for the treatment of cancers, inflammatory diseases, rasopathies, and fibrotic disease” (Shy Therapeutics LLC, priority 2017, dated 2021).
pIC50: −log10 of the molar value.

Legend:
Assay in all cases: Ras GTP binding domain inhibition assay (labeled GTP)
[1] = target: KRas G12D/Q61H double mutant (Homo sapiens (Human), UniProt P01116, G12D/Q61H); conditions: for inhibition at 20 µM: 20 μM compound, read-out: % Inhibition at 20 μM KRas G12D Q61H
Method in brief: (§1)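 Fluorescence read-out of Cy3-/Cy5-GTP remaining bound to nickel-immobilized His-KRas after washes. Protein was coated overnight at 4° C, then exposed to compound for 3 h at room temperature before a 45 min labeled-GTP incubation.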

KRas Q61H mutant = KRas Q61H mutant (Homo sapiens (Human), UniProt P01116, Q61H); conditions: 20 μM compound; read-out: % Inhibition at 20 μM KRas Q61H
Method in brief: as §1

[2] = target: KRas G12C/Q61H double mutant (Homo sapiens (Human), UniProt P01116, G12C/Q61H); conditions: 20 μM compound; read-out: % Inhibition at 20 μM KRas G12C Q61H
Method in brief: as §1

KRas Q61H mutant, sequence (P01116-2 other isoform, or with tags, fused parts or gaps Q61H): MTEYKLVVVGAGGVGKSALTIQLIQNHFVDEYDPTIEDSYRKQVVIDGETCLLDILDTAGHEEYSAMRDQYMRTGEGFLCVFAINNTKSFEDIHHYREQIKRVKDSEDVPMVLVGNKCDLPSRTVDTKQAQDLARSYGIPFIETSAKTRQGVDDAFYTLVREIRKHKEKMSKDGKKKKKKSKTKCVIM
KRas G12C/Q61H double mutant, sequence (P01116-2 other isoform, or with tags, fused parts or gaps G12C/Q61H): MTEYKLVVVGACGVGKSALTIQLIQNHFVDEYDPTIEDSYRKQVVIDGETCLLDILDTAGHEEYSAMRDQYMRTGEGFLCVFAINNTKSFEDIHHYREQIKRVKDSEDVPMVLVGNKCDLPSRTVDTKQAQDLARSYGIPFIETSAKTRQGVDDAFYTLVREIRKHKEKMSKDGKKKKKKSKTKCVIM
KRas G12D/Q61H double mutant, sequence (P01116-2 other isoform, or with tags, fused parts or gaps G12D/Q61H): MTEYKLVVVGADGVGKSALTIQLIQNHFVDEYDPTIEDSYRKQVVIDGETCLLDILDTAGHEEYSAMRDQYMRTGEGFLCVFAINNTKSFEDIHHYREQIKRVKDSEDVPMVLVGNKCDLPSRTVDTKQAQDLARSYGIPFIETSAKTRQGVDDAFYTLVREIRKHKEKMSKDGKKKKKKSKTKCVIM

Row | inhibition at 20 µM [1] [%] | inhibition at 20 µM (KRas Q61H mutant) [%] | inhibition at 20 µM [2] [%] | SMILES | pIC50 ([1]; serial dilution, read-out: KRas G12D Q61H (classes E-H, IC50))
1 | 25 to 50 | 51 to 75 | 51 to 75 | COc1ccc(N2CCN(C(=O)c3csc4c(O)nc(-c5ccccn5)nc34)CC2)c(OC)c1 [drawing 2759] | –
2 | 51 to 75 | 25 to 50 | 25 to 50 | O=C(c1csc2c(O)nc(-c3ccccn3)nc12)N1CCN(c2ccc(F)cc2F)CC1 [drawing 2760] | –
3 | 25 to 50 | 76 to 100 | 51 to 75 | O=C(c1csc2c(O)nc(-c3ccccn3)nc12)N1CCN(Cc2ccccc2)CC1 [drawing 2762] | –
4 | 1 to 25 | 25 to 50 | 25 to 50 | O=C(c1csc2c(O)nc(-c3ccccn3)nc12)N1CCN(Cc2ccc(O)cc2)CC1 [drawing 2764] | –
5 | 25 to 50 | 76 to 100 | 76 to 100 | O=C(c1csc2c(O)nc(-c3ccccn3)nc12)N1CCN(Cc2ccc(O)c(Cl)c2)CC1 [drawing 2765] | –
6 | 1 to 25 | 51 to 75 | 25 to 50 | O=C(c1csc2c(O)nc(-c3ccccn3)nc12)N1CCOC(c2ccccc2)C1 (stereo not shown) [drawing 2766] | –
7 | 25 to 50 | 25 to 50 | 25 to 50 | COc1ccc(C2CN(C(=O)c3csc4c(O)nc(-c5ccccn5)nc34)CCO2)cc1 (stereo not shown) [drawing 2768] | –
8 | 1 to 25 | 51 to 75 | 25 to 50 | O=C(c1csc2c(O)nc(-c3ccccn3)nc12)N1CCOC(c2cccc(Cl)c2)C1 (stereo not shown) [drawing 2770] | –
9 | 25 to 50 | 51 to 75 | 51 to 75 | O=C(c1csc2c(O)nc(-c3ccccn3)nc12)N1CCOC(Cc2ccccc2)C1 (stereo not shown) [drawing 2771] | –
10 | 25 to 50 | 76 to 100 | 51 to 75 | COc1ccccc1C1CN(C(=O)c2csc3c(O)nc(-c4ccccn4)nc23)CCN1 (stereo not shown) [drawing 2772] | –
11 | 1 to 25 | 76 to 100 | 76 to 100 | COc1ccc(C2CN(C(=O)c3csc4c(O)nc(-c5ccccn5)nc34)CCN2)cc1 (stereo not shown) [drawing 2774] | –
12 | 25 to 50 | 76 to 100 | 51 to 75 | O=C(c1csc2c(O)nc(-c3ccccn3)nc12)N1CCNC(c2ccccc2F)C1 (stereo not shown) [drawing 2776] | –
13 | 1 to 25 | 51 to 75 | 51 to 75 | Cn1cc(C2CN(C(=O)c3csc4c(O)nc(-c5ccccn5)nc34)CCN2)cn1 (stereo not shown) [drawing 2777] | –
14 | 25 to 50 | 51 to 75 | 51 to 75 | O=C(c1csc2c(O)nc(-c3ccccn3)nc12)N1CCNC(Cc2ccccc2)C1 (stereo not shown) [drawing 2778] | –
15 | 0 | 51 to 75 | 51 to 75 | O=C(NCCc1ccncc1)c1csc2nc(-c3ccccn3)nc(N3CCOCC3)c12 [drawing 2779] | –
16 | 1 to 25 | 25 to 50 | 1 to 25 | COc1ccncc1CCNC(=O)c1csc2nc(-c3ccccn3)nc(N3CCOCC3)c12 [drawing 2780] | –
17 | 0 | 25 to 50 | 25 to 50 | COc1cc(CCN(C)C(=O)c2csc3nc(-c4ccccn4)nc(N4CCOCC4)c23)ccn1 [drawing 2781] | –
18 | 0 | 51 to 75 | 25 to 50 | COc1ccnc(-c2nc(O)c3c(C#N)csc3n2)c1 [drawing 2782] | –

Row | inhibition at 20 µM [1] [%] | inhibition at 20 µM (KRas Q61H mutant) [%] | inhibition at 20 µM [2] [%] | SMILES | pIC50 ([1]; serial dilution, read-out: KRas G12D Q61H (classes E-H, IC50))
19 | 1 to 25 | 1 to 25 | 1 to 25 | O=C(NCCc1ccnc(O)c1)c1csc2nc(-c3ccccn3)nc(N3CCOCC3)c12 [drawing 2783] | –
20 | 1 to 25 | 25 to 50 | 25 to 50 | O=C(NCCc1cncnc1)c1csc2nc(-c3ccccn3)nc(N3CCOCC3)c12 [drawing 2784] | –
21 | 0 | 1 to 25 | 25 to 50 | O=C(NCCc1ccc(O)c(O)c1)c1csc2nc(-c3ccccn3)nc(N3CCOCC3)c12 [drawing 2785] | –
22 | 1 to 25 | 51 to 75 | 25 to 50 | O=C(NCCc1nnn[nH]1)c1csc2nc(-c3ccccn3)nc(N3CCOCC3)c12 [drawing 2786] | –
23 | 1 to 25 | 25 to 50 | 25 to 50 | N#Cc1cccc(CCNC(=O)c2csc3nc(-c4ccccn4)nc(N4CCOCC4)c23)c1 [drawing 2787] | –
24 | 1 to 25 | 51 to 75 | 51 to 75 | CN(CCc1cccc(C#N)c1)C(=O)c1csc2nc(-c3ccccn3)nc(N3CCOCC3)c12 [drawing 2788] | –
25 | 1 to 25 | 25 to 50 | 1 to 25 | COCCCCNC(=O)c1csc2nc(-c3ccccn3)nc(N3CCOCC3)c12 [drawing 2789] | –
26 | 1 to 25 | 51 to 75 | 25 to 50 | COCCCCN(C)C(=O)c1csc2nc(-c3ccccn3)nc(N3CCOCC3)c12 [drawing 2790] | –
27 | 1 to 25 | 25 to 50 | 25 to 50 | CNS(=O)(=O)CCCNC(=O)c1csc2nc(-c3ccccn3)nc(N3CCOCC3)c12 [drawing 2791] | –
28 | 1 to 25 | 25 to 50 | 1 to 25 | COCCN(CCOC)c1nc(-c2ccccn2)nc2scc(C(=O)NCCc3ccc(OC)nc3)c12 [drawing 2792] | –
29 | 0 | 51 to 75 | 25 to 50 | COCCCCNC(=O)c1csc2nc(-c3ccccn3)nc(N(CCOC)CCOC)c12 [drawing 2793] | –
30 | 1 to 25 | 51 to 75 | 51 to 75 | CC(C(=O)Nc1ccnc(-c2ccccn2)n1)c1ccc(C#N)cc1 (stereo not shown) [drawing 2794] | –
31 | 1 to 25 | 25 to 50 | 1 to 25 | COc1ccc2c(c1)CCC2C(=O)Nc1ccnc(-c2ccccn2)n1 (stereo not shown) [drawing 2795] | –
32 | 0 | 51 to 75 | 25 to 50 | N#Cc1ccc(COCC(=O)Nc2ccnc(-c3ccccn3)n2)cc1 [drawing 2796] | –
33 | 1 to 25 | 51 to 75 | 51 to 75 | Cc1cnc(-c2ccccn2)nc1NC(=O)C(C)c1ccc(C#N)cc1 (stereo not shown) [drawing 2797] | –
34 | 1 to 25 | 76 to 100 | 76 to 100 | CC(C(=O)Nc1nc(-c2ccccn2)nc2sccc12)c1ccc(C#N)cc1 (stereo not shown) [drawing 2798] | –
35 | 25 to 50 | 25 to 50 | 1 to 25 | COc1cnc(CN)[nH]c1=O [drawing 2801] | –
36 | 1 to 25 | 51 to 75 | 51 to 75 | COc1ccc(N2CCN(C(=O)c3csc4c(O)nc(-c5ccccn5)nc34)CC2)cc1O [drawing 2802] | –

Row | SMILES | inhibition at 20 µM [1] [%] | inhibition at 20 µM (KRas Q61H mutant) [%] | inhibition at 20 µM [2] [%] | pIC50 ([1]; serial dilution, read-out: KRas G12D Q61H (classes E-H, IC50))
37 | COc1ccccc1C1CN(C(=O)c2csc3c(O)nc(-c4ccccn4)nc23)CCO1 (stereo not shown) [drawing 2767] | 51 to 75 | 76 to 100 | 51 to 75 | 4.52 to 4.96
38 | Cc1ccccc1C1CN(C(=O)c2csc3c(O)nc(-c4ccccn4)nc23)CCN1 (stereo not shown) [drawing 2775] | 25 to 50 | 76 to 100 | 51 to 75 | –
